According to the NIST ThermoML archive (doi:10.1016/j.fluid.2013.10.029):
± gives the expanded uncertainty stated by the source.

What was measured:
[1] = excess molar enthalpy (molar enthalpy of mixing); xn = mol fraction of the nth substance listed; conditions: 298.15 K, 101 kPa, Liquid, isothermal titration calorimeter
[2] = xn = mol fraction of the nth substance listed; conditions: 101.33 kPa, Liquid, Vibrating tube method

c1cc[nH]c1 [pyrrole] + c1ccccc1
[1]
Conditions | excess molar enthalpy [kcal/mol]
x1 = 0.015 | 0.017 ± 0.000884
x1 = 0.03 | 0.0293 ± 0.000932
x1 = 0.0448 | 0.0406 ± 0.000956
x1 = 0.0597 | 0.0508 ± 0.00098
x1 = 0.0747 | 0.0604 ± 0.00105
x1 = 0.0896 | 0.0691 ± 0.0011
x1 = 0.1045 | 0.0773 ± 0.00117
x1 = 0.1193 | 0.0847 ± 0.00124
x1 = 0.1343 | 0.0917 ± 0.00131
x1 = 0.1493 | 0.0981 ± 0.00136
x1 = 0.1642 | 0.104 ± 0.00143
x1 = 0.1792 | 0.109 ± 0.00148
x1 = 0.1942 | 0.115 ± 0.00153
x1 = 0.2092 | 0.119 ± 0.0016
x1 = 0.2242 | 0.123 ± 0.00165
x1 = 0.2392 | 0.127 ± 0.00167
x1 = 0.2542 | 0.131 ± 0.00172
x1 = 0.2691 | 0.134 ± 0.00174
x1 = 0.284 | 0.136 ± 0.00179
x1 = 0.299 | 0.139 ± 0.00182
x1 = 0.314 | 0.141 ± 0.00184
x1 = 0.329 | 0.143 ± 0.00186
x1 = 0.344 | 0.144 ± 0.00186
x1 = 0.359 | 0.145 ± 0.00189
x1 = 0.374 | 0.146 ± 0.00189
x1 = 0.389 | 0.147 ± 0.00191
x1 = 0.404 | 0.148 ± 0.00191
x1 = 0.419 | 0.148 ± 0.00191
x1 = 0.434 | 0.148 ± 0.00191
x1 = 0.449 | 0.148 ± 0.00191
x1 = 0.464 | 0.147 ± 0.00191
x1 = 0.479 | 0.146 ± 0.00189
x1 = 0.494 | 0.146 ± 0.00189
x1 = 0.5091 | 0.144 ± 0.00186
x1 = 0.5241 | 0.143 ± 0.00186
x1 = 0.5391 | 0.142 ± 0.00184
x1 = 0.5541 | 0.14 ± 0.00182
x1 = 0.5613 | 0.14 ± 0.00182
x1 = 0.5683 | 0.139 ± 0.00182
x1 = 0.5692 | 0.138 ± 0.00179
x1 = 0.583 | 0.137 ± 0.00227
x1 = 0.5842 | 0.136 ± 0.00225
x1 = 0.5977 | 0.135 ± 0.00222
x1 = 0.5993 | 0.133 ± 0.0022
x1 = 0.6122 | 0.133 ± 0.00215
x1 = 0.6143 | 0.131 ± 0.00213
x1 = 0.6267 | 0.131 ± 0.00172
x1 = 0.6411 | 0.129 ± 0.0017
x1 = 0.6554 | 0.126 ± 0.00165
x1 = 0.6696 | 0.124 ± 0.00163
x1 = 0.6838 | 0.121 ± 0.0016
x1 = 0.6978 | 0.118 ± 0.00155
x1 = 0.7118 | 0.114 ± 0.00153
x1 = 0.7257 | 0.111 ± 0.00148
x1 = 0.7395 | 0.107 ± 0.00143
x1 = 0.7533 | 0.104 ± 0.00141
x1 = 0.7669 | 0.0996 ± 0.00136
x1 = 0.7805 | 0.0956 ± 0.00131
x1 = 0.794 | 0.0913 ± 0.00127
x1 = 0.8074 | 0.0868 ± 0.00122
x1 = 0.8208 | 0.0822 ± 0.00117
x1 = 0.8341 | 0.0774 ± 0.00112
x1 = 0.8473 | 0.0726 ± 0.00108
x1 = 0.8604 | 0.0674 ± 0.001
x1 = 0.8735 | 0.0622 ± 0.000956
x1 = 0.8865 | 0.0567 ± 0.000908
x1 = 0.8993 | 0.0511 ± 0.00086
x1 = 0.9121 | 0.0452 ± 0.000813
x1 = 0.9249 | 0.0392 ± 0.000765
x1 = 0.9377 | 0.0331 ± 0.000717
x1 = 0.9502 | 0.0269 ± 0.000669
x1 = 0.9628 | 0.0203 ± 0.000645
x1 = 0.9753 | 0.0138 ± 0.000621
x1 = 0.9877 | 0.00698 ± 0.000598

c1cc[nH]c1 [pyrrole] + c1ccncc1
mass density [kg/m3], [2]
Conditions | 298.15 K | 308.15 K | 318.15 K | 328.15 K | 338.15 K
x1 = 0.0735 | 977.37 ± 0.11 | 967.47 ± 0.11 | 957.53 ± 0.11 | 947.53 ± 0.11 | 937.46 ± 0.11
x1 = 0.1006 | 977.04 ± 0.11 | 967.22 ± 0.11 | 957.34 ± 0.11 | 947.41 ± 0.11 | 937.4 ± 0.11
x1 = 0.1428 | 976.57 ± 0.11 | 966.85 ± 0.11 | 957.07 ± 0.11 | 947.23 ± 0.11 | 937.32 ± 0.11
x1 = 0.1978 | 975.9 ± 0.11 | 966.3 ± 0.11 | 956.66 ± 0.11 | 946.95 ± 0.11 | 937.15 ± 0.11
x1 = 0.2273 | 975.56 ± 0.11 | 966.03 ± 0.11 | 956.45 ± 0.11 | 946.8 ± 0.11 | 937.07 ± 0.12
x1 = 0.3021 | 974.44 ± 0.11 | 965.06 ± 0.11 | 955.63 ± 0.11 | 946.12 ± 0.11 | 936.52 ± 0.12
x1 = 0.3704 | 973.5 ± 0.11 | 964.22 ± 0.11 | 954.89 ± 0.11 | 945.49 ± 0.11 | 936.01 ± 0.12
x1 = 0.4409 | 972.25 ± 0.11 | 963.08 ± 0.11 | 953.85 ± 0.11 | 944.54 ± 0.11 | 935.14 ± 0.12
x1 = 0.5426 | 970.64 ± 0.11 | 961.59 ± 0.11 | 952.47 ± 0.11 | 943.27 ± 0.11 | 933.99 ± 0.12
x1 = 0.6168 | 969.44 ± 0.11 | 960.46 ± 0.11 | 951.41 ± 0.11 | 942.28 ± 0.11 | 933.06 ± 0.12
x1 = 0.682 | 968.6 ± 0.11 | 959.68 ± 0.11 | 950.68 ± 0.11 | 941.6 ± 0.12 | 932.43 ± 0.12
x1 = 0.7554 | 967.69 ± 0.11 | 958.82 ± 0.11 | 949.87 ± 0.11 | 940.85 ± 0.12 | 931.72 ± 0.12
x1 = 0.8374 | 966.69 ± 0.11 | 957.88 ± 0.11 | 948.98 ± 0.11 | 939.99 ± 0.12 | 930.91 ± 0.12
x1 = 0.9063 | 966.15 ± 0.11 | 957.38 ± 0.11 | 948.53 ± 0.11 | 939.58 ± 0.12 | 930.54 ± 0.12
x1 = 0.9591 | 965.77 ± 0.11 | 957.04 ± 0.11 | 948.21 ± 0.11 | 939.3 ± 0.12 | 930.28 ± 0.12
x1 = 1 | 965.54 ± 0.11 | 956.83 ± 0.11 | 948.03 ± 0.11 | 939.14 ± 0.12 | 930.13 ± 0.12

[1]
Conditions | excess molar enthalpy [kcal/mol]
x1 = 0.03 | -0.0466 ± 0.0021
x1 = 0.06 | -0.106 ± 0.00239
x1 = 0.0898 | -0.164 ± 0.00287
x1 = 0.1197 | -0.22 ± 0.00335
x1 = 0.1497 | -0.274 ± 0.00382
x1 = 0.1797 | -0.326 ± 0.0043
x1 = 0.2096 | -0.375 ± 0.00502
x1 = 0.2395 | -0.422 ± 0.0055
x1 = 0.2695 | -0.466 ± 0.00598
x1 = 0.2994 | -0.505 ± 0.00645
x1 = 0.3295 | -0.541 ± 0.00693
x1 = 0.3594 | -0.572 ± 0.00717
x1 = 0.3895 | -0.597 ± 0.00741
x1 = 0.4195 | -0.616 ± 0.00765
x1 = 0.4495 | -0.629 ± 0.00789
x1 = 0.4795 | -0.634 ± 0.00789
x1 = 0.4832 | -0.637 ± 0.00789
x1 = 0.4902 | -0.637 ± 0.00789
x1 = 0.5095 | -0.633 ± 0.00789
x1 = 0.5202 | -0.633 ± 0.00789
x1 = 0.5396 | -0.625 ± 0.00789
x1 = 0.5502 | -0.622 ± 0.00765
x1 = 0.5696 | -0.61 ± 0.00765
x1 = 0.5802 | -0.604 ± 0.00765
x1 = 0.5906 | -0.595 ± 0.00741
x1 = 0.6102 | -0.58 ± 0.00717
x1 = 0.6402 | -0.551 ± 0.00693
x1 = 0.6702 | -0.517 ± 0.00645
x1 = 0.7002 | -0.479 ± 0.00621
x1 = 0.7302 | -0.437 ± 0.00574
x1 = 0.7602 | -0.393 ± 0.00502
x1 = 0.7901 | -0.347 ± 0.00454
x1 = 0.8201 | -0.298 ± 0.00406
x1 = 0.8501 | -0.249 ± 0.00359
x1 = 0.8801 | -0.198 ± 0.00311
x1 = 0.9101 | -0.147 ± 0.00263
x1 = 0.9401 | -0.0953 ± 0.00215
x1 = 0.9701 | -0.0432 ± 0.00184
